Source: patent US20250198987A1, “SYSTEM FOR MEASURING METASTATIC POTENTIAL OF CANCER CELLS AND METHOD FOR MEASURING METASTATIC POTENTIAL OF CANCER CELLS BY USING SAME” (Seoul National University Hospital, priority 2020, published 2025)
Counter-ions that a name gives are not always drawn. Like-named read-outs stand apart in the source and are kept apart here.

Tests used:
[1] = tested on: lung cancer cells (A549); conditions: lung mimicking model, FIG. 5A
Experimental: Then, gelation was allowed at room temperature for 15 minutes. Then, after coating with collagen (0.03 mg/ml, 1 VL content) (sigma, collagen type I solution) and fibronectin (0.001%, 5 mg) (Sigma, F0895) for two hours at 37° C., a total of 20 μl of 4×10^6/ml of HUVEC (LONZA, HUVEC-Umbil vein, Pooled cells) as vascular endothelial cells was added into one of the cell culture channels, the chip was raised at 90°, and the cells were cultured for one to two hours so as to be adhered in a direction of the gel layer formed in the middle. Then, put the chip down to its original state, replace the medium, and when the vascular endothelial cells form one blood vessel layer starting from the gel layer in the middle, a total of 20 μl of 1×10^6/ml lung cancer cells (A549) were put on the same layer, the chip was raised at 90° and cultured overnight so that the chip was attached in the direction of the gel layer formed in the middle. Then, the chip was put down again, the medium was replaced, and cultured for 5 days, and it was confirmed whether the lung cancer cells migrated to the middle gel layer. After that, the chip was put down to the original state again, the medium was replaced, the cells were cultured for five days, and whether the lung cancer cells migrated to the middle gel layer was checked. […]

[2] = tested on: lung cancer cells (A549); conditions: BBB mimicking model, FIG. 5B
Text: In addition, the BBB mimicking model was manufactured in the same method of manufacturing the lung mimicking model, but astrocytes (Human Astrocytes) (ScienCell, #1800) were used instead of fibroblasts, human brain microvascular endothelial cells (HBMVEC) (Cell systems, ACBRI 376) were used instead of HUVECs as vascular endothelial cells, and the total culture periods were set to be different due to the difference in cell proliferation rates between the lung mimicking model and the BBB mimicking model. […] In the experimental method, as described in Example 1 above, blood vessel cells were treated with CD31, lung cancer cells were treated with cytokeratin 8, and the cells were photographed by using a confocal microscope, Carl Zeiss, LSM710.

c1cc(CN2CCCNCCNCCCNCC2)ccc1CN1CCCNCCNCCCNCC1 [AMD3100, AMD3100 (octahydrochloride)]
metastasis of lung cancer cells ([1]; 1 μg/ml and 5 μg/ml, treated for one day or six days, compared to the group to which AMD3100 is not treated, confocal microscope): generally reduced
metastasis suppression ([1]; 1 μg/ml treated for six days, compared among treatment groups): best metastasis suppression
metastasis of lung cancer cells ([2]; 1 μg/ml and 5 μg/ml, treated for one day or six days, confocal microscope): reduced more
metastasis suppression ([2]; 1 μg/ml treated for one day, compared among treatment groups): best metastasis suppression
